The target of one test is human (hACC2) (Homo sapiens, UniProt O00763). The test can be described thus: In vitro ACC inhibition assay (ADP-Glo), hACC2. The format is biochemical. The following applies: 5 nM ACC2, 20 μM ATP, 20 μM acetyl-CoA. How it is done:
The detailed procedure is as follows. […] 10 μL ADP glo reagent was added. […] 20 μL kinase detection reagent was added.

For a further test, the system named is C. albicans. The test can be described thus: Antifungal Activity Assay (broth microtiter MIC), C. albicans. The class given is cell-based, Candida albicans. Conditions: Candida albicans, ATCC90028, 48 h. Put shortly: (§1)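 CLSI M27-A3 broth microdilution in RPMI 1640+MOPS, final inoculum 2.5×10^3 CFU/mL from overnight Sabouraud cultures grown at 35 °C. MIC read visually at 48 h against growth control.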

For a further test, the system named is C. krusei. The test can be described thus: Antifungal Activity Assay (broth microtiter MIC), C. krusei. The format is cell-based, Candida krusei. Conditions: Pichia kudriavzevii, ATCC6258, 48 h. Put shortly:
as §1

In a further test the test system is C. parapsilosis. The test can be described thus: Antifungal Activity Assay (broth microtiter MIC), C. parapsilosis. The format is cell-based, Candida parapsilosis. The following applies: Lodderomyces parapsilosis, ATCC22019, 48 h. Put shortly:
as §1

The target in the next test is fungal (fACC2) (UniProt Q00955). The following applies: read-out: fACC2 (in vitro ACC2 Inhibition Assay, IC50), ADP-Glo, 5 nM ACC2, 20 μM ATP, 20 μM acetyl-CoA.
Where [1] appears, read: Table 3a, ATCC 90028, 3 replicates, MIC recorded at 48 h, read-out: MIC, C. albicans ATCC 90028.
Where [2] appears, read: Table 3b (additional results), ATCC 90028, 3 replicates, MIC recorded at 48 h, read-out: MIC, C. albicans ATCC 90028.
[3] abbreviates: Table 3a, ATCC 6258, 3 replicates, MIC recorded at 48 h, read-out: MIC, C. krusei ATCC 6258.
Setting [4] is: Table 3b (additional results), ATCC 6258, 3 replicates, MIC recorded at 48 h, read-out: MIC, C. krusei ATCC 6258.
Where [5] appears, read: Table 3a, ATCC 22019, 3 replicates, MIC recorded at 48 h, read-out: MIC, C. parapsilosis ATCC 22019.
Setting [6] is: Table 3b (additional results), ATCC 22019, 3 replicates, MIC recorded at 48 h, read-out: MIC, C. parapsilosis ATCC 22019.

We go through seven compounds from patent US10800791B2, “Triazole ACC inhibitors and uses thereof” (Gilead Apollo, LLC, priority 2015, dated 2020).

Each structure is given as a SMILES string. Values after ≈ are worked out from the molar mass of the structure shown. Read-outs that look alike come from different tables or passages of the source.

Sequence of fungal (fACC2) (Q00955 whole entry): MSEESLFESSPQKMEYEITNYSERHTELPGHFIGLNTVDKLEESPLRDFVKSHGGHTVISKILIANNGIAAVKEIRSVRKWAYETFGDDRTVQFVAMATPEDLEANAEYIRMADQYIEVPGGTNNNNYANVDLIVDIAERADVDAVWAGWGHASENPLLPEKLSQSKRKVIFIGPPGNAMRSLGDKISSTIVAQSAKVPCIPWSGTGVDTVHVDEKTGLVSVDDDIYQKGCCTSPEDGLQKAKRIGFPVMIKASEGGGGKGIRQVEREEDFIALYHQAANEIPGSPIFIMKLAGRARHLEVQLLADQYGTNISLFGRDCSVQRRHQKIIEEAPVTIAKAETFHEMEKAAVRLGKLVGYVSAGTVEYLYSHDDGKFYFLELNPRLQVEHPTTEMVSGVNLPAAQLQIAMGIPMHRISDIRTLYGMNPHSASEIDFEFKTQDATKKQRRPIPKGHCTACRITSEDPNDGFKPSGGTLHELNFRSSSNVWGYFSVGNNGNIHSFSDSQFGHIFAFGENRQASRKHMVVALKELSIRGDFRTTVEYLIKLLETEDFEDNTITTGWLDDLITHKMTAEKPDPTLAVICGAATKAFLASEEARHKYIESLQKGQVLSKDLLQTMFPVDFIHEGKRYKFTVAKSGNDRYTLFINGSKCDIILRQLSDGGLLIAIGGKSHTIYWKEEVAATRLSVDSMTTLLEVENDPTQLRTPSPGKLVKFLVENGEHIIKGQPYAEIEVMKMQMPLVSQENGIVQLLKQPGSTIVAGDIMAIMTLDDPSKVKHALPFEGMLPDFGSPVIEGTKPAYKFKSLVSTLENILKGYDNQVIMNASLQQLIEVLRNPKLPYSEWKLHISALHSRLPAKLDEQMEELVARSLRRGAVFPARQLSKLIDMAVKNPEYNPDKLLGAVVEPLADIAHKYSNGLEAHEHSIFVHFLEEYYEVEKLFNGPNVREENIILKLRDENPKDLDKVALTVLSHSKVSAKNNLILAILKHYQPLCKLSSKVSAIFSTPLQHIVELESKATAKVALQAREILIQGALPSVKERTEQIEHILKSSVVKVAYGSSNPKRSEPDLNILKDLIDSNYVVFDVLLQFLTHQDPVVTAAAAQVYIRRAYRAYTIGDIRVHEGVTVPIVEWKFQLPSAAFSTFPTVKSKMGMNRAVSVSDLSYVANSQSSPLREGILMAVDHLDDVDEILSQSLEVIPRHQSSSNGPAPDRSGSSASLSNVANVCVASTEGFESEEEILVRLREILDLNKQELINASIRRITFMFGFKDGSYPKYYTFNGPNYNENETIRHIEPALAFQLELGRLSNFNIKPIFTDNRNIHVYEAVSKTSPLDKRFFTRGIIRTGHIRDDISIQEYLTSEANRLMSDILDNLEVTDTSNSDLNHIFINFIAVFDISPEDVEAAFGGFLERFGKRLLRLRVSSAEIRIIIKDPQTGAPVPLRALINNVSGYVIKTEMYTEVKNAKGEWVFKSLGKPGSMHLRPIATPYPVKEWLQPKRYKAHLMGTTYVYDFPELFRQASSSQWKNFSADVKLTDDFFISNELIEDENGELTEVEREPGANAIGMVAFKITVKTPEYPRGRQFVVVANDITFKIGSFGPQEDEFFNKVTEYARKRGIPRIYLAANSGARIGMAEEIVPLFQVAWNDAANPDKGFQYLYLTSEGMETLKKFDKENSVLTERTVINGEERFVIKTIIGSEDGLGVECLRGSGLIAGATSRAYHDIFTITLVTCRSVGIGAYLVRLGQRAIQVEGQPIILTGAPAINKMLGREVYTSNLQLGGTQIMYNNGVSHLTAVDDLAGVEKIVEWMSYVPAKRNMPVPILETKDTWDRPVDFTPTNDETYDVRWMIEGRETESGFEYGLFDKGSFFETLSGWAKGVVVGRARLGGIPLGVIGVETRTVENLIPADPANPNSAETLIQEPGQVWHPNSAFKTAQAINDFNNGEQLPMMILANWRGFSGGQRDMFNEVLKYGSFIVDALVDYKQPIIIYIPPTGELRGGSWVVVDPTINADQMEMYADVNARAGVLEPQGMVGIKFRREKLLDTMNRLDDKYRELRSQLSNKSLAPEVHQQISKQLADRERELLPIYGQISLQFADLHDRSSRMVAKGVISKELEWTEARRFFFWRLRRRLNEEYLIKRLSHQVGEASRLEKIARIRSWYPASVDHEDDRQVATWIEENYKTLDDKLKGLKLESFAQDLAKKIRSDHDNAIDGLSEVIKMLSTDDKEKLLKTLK
Sequence of human (hACC2) (O00763 whole entry): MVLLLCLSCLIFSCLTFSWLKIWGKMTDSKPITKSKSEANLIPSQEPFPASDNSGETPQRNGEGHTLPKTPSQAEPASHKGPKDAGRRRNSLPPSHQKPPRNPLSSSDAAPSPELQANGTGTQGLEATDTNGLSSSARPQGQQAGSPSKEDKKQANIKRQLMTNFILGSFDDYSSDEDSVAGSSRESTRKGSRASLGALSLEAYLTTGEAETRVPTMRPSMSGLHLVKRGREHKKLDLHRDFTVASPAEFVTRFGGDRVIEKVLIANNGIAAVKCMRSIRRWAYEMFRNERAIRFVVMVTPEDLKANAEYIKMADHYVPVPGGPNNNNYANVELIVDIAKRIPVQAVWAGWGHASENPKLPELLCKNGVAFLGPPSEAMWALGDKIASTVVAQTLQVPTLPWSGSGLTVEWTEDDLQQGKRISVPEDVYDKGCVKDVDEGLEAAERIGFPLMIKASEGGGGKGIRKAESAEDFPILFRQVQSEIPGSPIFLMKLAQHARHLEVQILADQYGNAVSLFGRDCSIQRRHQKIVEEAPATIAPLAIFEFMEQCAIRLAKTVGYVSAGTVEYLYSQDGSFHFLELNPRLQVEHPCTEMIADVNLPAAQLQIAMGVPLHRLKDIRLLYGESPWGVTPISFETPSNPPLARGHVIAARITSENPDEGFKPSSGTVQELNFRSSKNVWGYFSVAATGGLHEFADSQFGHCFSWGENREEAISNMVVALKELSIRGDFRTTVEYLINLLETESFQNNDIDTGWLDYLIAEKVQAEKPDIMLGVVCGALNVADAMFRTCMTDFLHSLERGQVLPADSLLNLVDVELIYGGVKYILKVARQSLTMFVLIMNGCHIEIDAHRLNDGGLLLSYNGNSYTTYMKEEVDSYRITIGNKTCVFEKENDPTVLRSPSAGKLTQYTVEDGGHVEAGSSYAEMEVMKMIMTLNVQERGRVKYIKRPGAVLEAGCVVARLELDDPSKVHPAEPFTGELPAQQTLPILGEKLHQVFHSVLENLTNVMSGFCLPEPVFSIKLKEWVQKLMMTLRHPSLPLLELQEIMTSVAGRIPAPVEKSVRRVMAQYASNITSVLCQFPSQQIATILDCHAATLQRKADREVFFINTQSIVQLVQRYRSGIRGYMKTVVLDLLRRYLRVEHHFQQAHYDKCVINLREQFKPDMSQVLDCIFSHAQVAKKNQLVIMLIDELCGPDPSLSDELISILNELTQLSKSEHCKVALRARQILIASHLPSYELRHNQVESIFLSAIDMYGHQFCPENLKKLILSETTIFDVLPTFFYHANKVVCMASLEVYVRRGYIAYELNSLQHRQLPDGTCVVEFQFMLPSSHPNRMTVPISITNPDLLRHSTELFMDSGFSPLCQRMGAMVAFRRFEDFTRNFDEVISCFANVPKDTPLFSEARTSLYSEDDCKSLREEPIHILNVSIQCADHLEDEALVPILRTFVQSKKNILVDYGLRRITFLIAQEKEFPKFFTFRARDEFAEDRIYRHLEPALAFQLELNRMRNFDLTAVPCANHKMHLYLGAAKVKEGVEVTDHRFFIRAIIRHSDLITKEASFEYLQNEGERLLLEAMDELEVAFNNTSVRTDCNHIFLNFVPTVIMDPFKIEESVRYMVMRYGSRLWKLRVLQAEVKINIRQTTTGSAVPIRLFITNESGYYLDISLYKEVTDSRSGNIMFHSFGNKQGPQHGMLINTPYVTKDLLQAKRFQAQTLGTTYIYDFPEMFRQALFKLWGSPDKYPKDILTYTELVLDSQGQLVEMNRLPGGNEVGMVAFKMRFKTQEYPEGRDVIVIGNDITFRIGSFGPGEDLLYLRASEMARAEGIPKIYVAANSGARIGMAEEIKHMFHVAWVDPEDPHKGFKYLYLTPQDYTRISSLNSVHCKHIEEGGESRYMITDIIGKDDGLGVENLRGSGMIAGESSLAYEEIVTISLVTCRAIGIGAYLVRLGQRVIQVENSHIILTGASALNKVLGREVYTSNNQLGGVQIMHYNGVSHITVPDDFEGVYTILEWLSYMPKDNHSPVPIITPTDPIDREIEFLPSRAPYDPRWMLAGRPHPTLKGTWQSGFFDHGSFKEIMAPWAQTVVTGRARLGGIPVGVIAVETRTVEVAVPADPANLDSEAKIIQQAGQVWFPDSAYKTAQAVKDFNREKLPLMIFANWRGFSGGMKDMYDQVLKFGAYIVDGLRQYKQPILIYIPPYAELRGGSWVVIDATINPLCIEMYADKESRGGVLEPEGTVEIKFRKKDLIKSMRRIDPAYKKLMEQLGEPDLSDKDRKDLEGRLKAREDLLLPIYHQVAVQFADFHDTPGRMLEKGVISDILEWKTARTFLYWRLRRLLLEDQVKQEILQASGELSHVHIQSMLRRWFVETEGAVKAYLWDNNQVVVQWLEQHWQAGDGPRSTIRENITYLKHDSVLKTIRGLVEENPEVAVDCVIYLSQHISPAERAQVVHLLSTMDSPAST

In the case of `COc1ccc(F)cc1[C@H](Cn1c(=O)n(C(C)(C)C(=O)NC(C)C)c(=O)c2c(C)c(-n3nccn3)sc21)OCCN1CC(C#N)C1` [Compound I-146], the IC50 on human (hACC2) (Table 2b, additional results) was over 40 nM; on fungal (fACC2) (Table 2a), 1 to 5 nM; at fungal (fACC2) (Table 2b, additional results), 1 to 5 nM. Also, the MIC in the test with C. albicans (read-out: MIC, C. albicans ATCC 90028, Table 3a, 3 replicates, MIC recorded at 48 h) lay in the range of 2.1 to 4 µg/mL (≈ 3.22 to 6.13 µM); with C. albicans (read-out: MIC, C. albicans ATCC 90028, Table 3b (additional results), 3 replicates, MIC recorded at 48 h), 1.01 to 2 µg/mL (≈ 1.55 to 3.06 µM); in the test on C. krusei (read-out: MIC, C. krusei ATCC 6258, Table 3a, 3 replicates, MIC recorded at 48 h) it was 2.1 to 4 µg/mL (≈ 3.22 to 6.13 µM); in the test on C. krusei (read-out: MIC, C. krusei ATCC 6258, Table 3b (additional results), 3 replicates, MIC recorded at 48 h), 0.25 to 1 µg/mL (≈ 0.383 to 1.53 µM); with C. parapsilosis (read-out: MIC, C. parapsilosis ATCC 22019, Table 3a, 3 replicates, MIC recorded at 48 h) it was 2.1 to 4 µg/mL (≈ 3.22 to 6.13 µM); in the test with C. parapsilosis (read-out: MIC, C. parapsilosis ATCC 22019, Table 3b (additional results), 3 replicates, MIC recorded at 48 h), 0.25 to 1 µg/mL (≈ 0.383 to 1.53 µM).

With `COc1ccc(F)cc1[C@H](Cn1c(=O)n(C(C)(C)C(=O)O)c(=O)c2c(C)c(-n3nccn3)sc21)OC[C@@H](C)C#N` [Compound I-147], the IC50 on human (hACC2) (Table 2a) lay within 5 to 10 nM; against human (hACC2) (Table 2b, additional results) it was 5 to 10 nM; at fungal (fACC2) (Table 2a), 1 to 5 nM; at fungal (fACC2) (Table 2b, additional results), 1 to 5 nM. Moreover, the MIC in the test with C. albicans (setting [1]) was 2.1 to 4 µg/mL (≈ 3.68 to 7.01 µM); in the test on C. albicans (setting [2]), 2.01 to 4 µg/mL (≈ 3.52 to 7.01 µM); with C. krusei (setting [3]) it was 2.1 to 4 µg/mL (≈ 3.68 to 7.01 µM); in the test with C. krusei (setting [4]) it was over 4.01 µg/mL; in the test on C. parapsilosis (setting [5]), 2.1 to 4 µg/mL (≈ 3.68 to 7.01 µM); in the test on C. parapsilosis (setting [6]), over 4.01 µg/mL.

`COc1ccc(F)cc1[C@H](Cn1c(=O)n(C(C)(C)C(=O)O)c(=O)c2c(C)c(-n3nccn3)sc21)OC[C@H](C)C#N` [Compound I-148]: the IC50 at human (hACC2) (Table 2a) was 1 to 5 nM; on human (hACC2) (Table 2b, additional results) it was 1 to 5 nM; on fungal (fACC2) (Table 2a), 1 to 5 nM; at fungal (fACC2) (Table 2b, additional results), 1 to 5 nM. Further, the MIC in the test on C. albicans (setting [1]) was 2.1 to 4 µg/mL (≈ 3.68 to 7.01 µM); with C. albicans (setting [2]), 2.01 to 4 µg/mL (≈ 3.52 to 7.01 µM); in the test on C. krusei (setting [3]), 2.1 to 4 µg/mL (≈ 3.68 to 7.01 µM); with C. krusei (setting [4]), over 4.01 µg/mL; with C. parapsilosis (setting [5]), 2.1 to 4 µg/mL (≈ 3.68 to 7.01 µM); with C. parapsilosis (setting [6]), over 4.01 µg/mL.

For `COc1ccc(F)cc1[C@H](Cn1c(=O)n(C(C)(C)C(=O)O)c(=O)c2c(C)c(-n3nccn3)sc21)OCC(C)(C)C#N` [Compound I-149, 2-[1-[(2R)-2-(2-cyano-2,2-dimethylethoxy)-2-(5-fluoro-2-methoxyphenyl)ethyl]-5-methyl-2,4-dioxo-6-(2H-1,2,3-triazol-2-yl)-1H,2H,3H,4H-thieno[2,3-d]pyrimidin-3-yl]-2-methylpropanoic acid], the IC50 was in the range of 1 to 5 nM against human (hACC2) (Table 2a); 1 to 5 nM against human (hACC2) (Table 2b, additional results); 1 to 5 nM on fungal (fACC2) (Table 2a); 1 to 5 nM at fungal (fACC2) (Table 2b, additional results). Also, the MIC in the test with C. albicans (setting [1]) is 2.1 to 4 µg/mL (≈ 3.59 to 6.84 µM); in the test with C. albicans (setting [2]), 1.01 to 2 µg/mL (≈ 1.73 to 3.42 µM); in the test with C. krusei (setting [3]), 2.1 to 4 µg/mL (≈ 3.59 to 6.84 µM); in the test on C. krusei (setting [4]) it was over 4.01 µg/mL; in the test with C. parapsilosis (setting [5]), 2.1 to 4 µg/mL (≈ 3.59 to 6.84 µM); with C. parapsilosis (setting [6]) it was over 4.01 µg/mL.

With `COc1ccc(F)cc1[C@H](Cn1c(=O)n(C(C)(C)C(N)=O)c(=O)c2c(C)c(-n3nccn3)sc21)OC[C@@H](C)C#N` [Compound I-152], the IC50 against human (hACC2) (Table 2a) lay in the range of 1 to 5 nM; at human (hACC2) (Table 2b, additional results) it was 1 to 5 nM; at fungal (fACC2) (Table 2a), 0.4 to 1 nM; on fungal (fACC2) (Table 2b, additional results) it was 0.3 to 1 nM. Besides, the MIC is 2.1 to 4 µg/mL (≈ 3.69 to 7.02 µM) in the test on C. albicans (setting [1]); 1.01 to 2 µg/mL (≈ 1.77 to 3.51 µM) in the test on C. albicans (setting [2]); 2.1 to 4 µg/mL (≈ 3.69 to 7.02 µM) with C. krusei (setting [3]); 2.01 to 4 µg/mL (≈ 3.53 to 7.02 µM) in the test with C. krusei (setting [4]); 2.1 to 4 µg/mL (≈ 3.69 to 7.02 µM) with C. parapsilosis (setting [5]); over 4.01 µg/mL in the test with C. parapsilosis (setting [6]).

Consider `COc1ccc(F)cc1[C@H](Cn1c(=O)n(C(C)(C)C(N)=O)c(=O)c2c(C)c(-n3nccn3)sc21)OC[C@H](C)C#N` [Compound I-153], for which the IC50 against human (hACC2) (Table 2a) is 1 to 5 nM; on human (hACC2) (Table 2b, additional results), 1 to 5 nM; on fungal (fACC2) (Table 2a), 0.4 to 1 nM; at fungal (fACC2) (Table 2b, additional results) it was 0.3 to 1 nM. Moreover, the MIC in the test with C. albicans (setting [1]) was 2.1 to 4 µg/mL (≈ 3.69 to 7.02 µM); in the test with C. albicans (setting [2]) it was 1.01 to 2 µg/mL (≈ 1.77 to 3.51 µM); in the test with C. krusei (setting [3]), 2.1 to 4 µg/mL (≈ 3.69 to 7.02 µM); in the test with C. krusei (setting [4]), 2.01 to 4 µg/mL (≈ 3.53 to 7.02 µM); with C. parapsilosis (setting [5]), 2.1 to 4 µg/mL (≈ 3.69 to 7.02 µM); in the test on C. parapsilosis (setting [6]) it was over 4.01 µg/mL.

Take `COc1ccc(F)cc1[C@H](Cn1c(=O)n(C(C)(C)C(N)=O)c(=O)c2c(C)c(-n3nccn3)sc21)OCC(C)(C)C#N` [Compound I-155]: the IC50 is 5 to 10 nM on human (hACC2) (Table 2a); 5 to 10 nM against human (hACC2) (Table 2b, additional results); 1 to 5 nM at fungal (fACC2) (Table 2a); 1 to 5 nM on fungal (fACC2) (Table 2b, additional results). Also, the MIC in the test with C. albicans (setting [1]) was 0.25 to 1 µg/mL (≈ 0.428 to 1.71 µM); in the test with C. albicans (setting [2]) it was 1.01 to 2 µg/mL (≈ 1.73 to 3.43 µM); in the test on C. krusei (setting [3]) it was 1.1 to 2 µg/mL (≈ 1.88 to 3.43 µM); in the test with C. krusei (setting [4]), 2.01 to 4 µg/mL (≈ 3.44 to 6.85 µM); in the test on C. parapsilosis (setting [5]) it was 2.1 to 4 µg/mL (≈ 3.6 to 6.85 µM); with C. parapsilosis (setting [6]), over 4.01 µg/mL.
